pIC50: −log10 of the molar value.

The target in the experiment is T1, purified STEP46 enzyme (Homo sapiens, UniProt P54829).
T1 sequence (P54829 1-565): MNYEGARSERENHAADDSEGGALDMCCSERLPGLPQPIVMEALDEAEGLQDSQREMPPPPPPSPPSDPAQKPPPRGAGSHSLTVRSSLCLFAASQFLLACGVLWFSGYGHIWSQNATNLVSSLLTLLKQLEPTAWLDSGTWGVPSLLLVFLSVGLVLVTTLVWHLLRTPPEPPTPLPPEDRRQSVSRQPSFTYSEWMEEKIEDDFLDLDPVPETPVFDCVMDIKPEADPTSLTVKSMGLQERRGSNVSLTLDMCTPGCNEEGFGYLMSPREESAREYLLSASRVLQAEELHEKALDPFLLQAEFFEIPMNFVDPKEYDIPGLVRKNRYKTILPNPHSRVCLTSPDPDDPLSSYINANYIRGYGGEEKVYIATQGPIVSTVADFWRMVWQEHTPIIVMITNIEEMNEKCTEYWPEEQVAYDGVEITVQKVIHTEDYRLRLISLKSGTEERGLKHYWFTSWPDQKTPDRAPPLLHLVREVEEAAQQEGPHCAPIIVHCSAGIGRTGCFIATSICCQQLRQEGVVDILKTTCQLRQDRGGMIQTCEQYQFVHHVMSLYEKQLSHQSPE
Kind of experiment: STEP46 biochemical assay (DiFMUP fluorescence phosphatase assay). The settings on record: DiFMUP 10 μM, read-out: STEP IC50. The method, boiled down: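 Compounds preincubated 30 min at room temperature with purified STEP46 (1 ng/well) in 50 mM Hepes, 1 mM DTT, 0.02% Brij35, then 10 μM DiFMUP (final) added for 90 min at 27 °C; 2% DMSO, fluorescence at 360/460 nm. IC50 from four-parameter fit of % inhibition; activators reported as negative % inhibition at 25, 50 and 100 uM.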
As a reminder, the pIC50 is the negative decadic logarithm of the IC50, by convention in mol/L. In the case of `FC(F)(F)Oc1cccc(Nc2nc(-c3ccnnc3)nc3ccccc23)c1` [Compound 1182], the negative-log IC50 (pIC50) is 5.00 to 6.00. Turning to `COc1ccc2nc(-c3cccnc3)nc(Nc3nc(-c4ccccc4OC(F)(F)F)cs3)c2c1` [Compound 454], the negative-log IC50 (pIC50) was 5.00 to 6.00. As for `COc1cc(-c2ccc3nc(-c4cccnc4)nc(Nc4ccc(F)c(Cl)c4)c3c2)ccc1C` [Compound 670], the figure is more than 6.00; as for `Cc1cccc2c(Nc3ccc(F)c(Cl)c3)nc(-c3cnccn3)nc12` [Compound 1176], 5.00 to 6.00; as for `COc1ccc2nc(-c3cnccn3)nc(Nc3ccc(Cl)c(Cl)c3)c2c1` [Compound 1234], 5.00 to 6.00. Consider `CNc1nc(-c2cccnc2)nc2ccc(-c3ccc(F)c(F)c3F)cc12` [Compound 1375], for which the negative-log IC50 (pIC50) was 5.00 to 6.00. `CC(C)Oc1cccc(-c2ccc3nc(-c4cccnc4)nc(Nc4ccc(F)c(Cl)c4)c3c2)c1` [Compound 673]: the negative-log IC50 (pIC50) was 5.00 to 6.00.

In the case of `COc1ccc2nc(-c3cccnc3)nc(Nc3nc(-c4cccc(F)c4)cs3)c2c1` [Compound 441], the negative-log IC50 (pIC50) is 5.00 to 6.00. The value for `N#Cc1cccc(Nc2nc(-c3cccnc3)nc3cc(-c4ccc(F)cc4)ccc23)c1` [Compound 709] was more than 6.00; that for `COc1ccc2nc(-c3cccnc3)nc(Nc3nc(-c4ccccc4Br)cs3)c2c1` [Compound 451] was more than 6.00; that for `CNc1nc(-c2cccnc2)nc2ccc(-c3cccc(OCCOC)c3)cc12` [Compound 1680, 6-(3-(2-methoxyethoxyl)phenyl)-N-methyl-2-(pyridin-3-yl)quinazolin-4-amine] was 5.00 to 6.00. As for `CNc1nc(-c2cccnc2)nc2cc(-c3cccc(F)c3)c(C)cc12` [Compound 1402], the figure is 5.00 to 6.00.

As to `CNc1nc(-c2cccnc2)nc2ccc(-c3cc(OC)cc(OC)c3)cc12` [Compound 1357], the negative logarithm of the IC50 (pIC50) was 5.00 to 6.00.

`COc1ccc2nc(-c3cccnc3)nc(Nc3ccc4ncoc4c3)c2c1` [Compound 341]: the pIC50 was 5.00 to 6.00.

With `COc1ccc2nc(-c3cccnc3)nc(Nc3ccc4c(C)cc(=O)[nH]c4c3)c2c1` [Compound 333], the negative logarithm of the IC50 (pIC50) is more than 6.00. As for `COc1ncc(-c2ccc3c(Nc4ccc(F)c(Cl)c4)nc(-c4cccnc4)nc3c2)cn1` [Compound 679], the figure is more than 6.00; as for `FC(F)Oc1cccc(Nc2nc(-c3cncnc3)nc3ccccc23)c1` [Compound 1211], less than 5.00. The value for `COc1ccc2nc(-c3cccnc3)nc(Nc3c(F)cccc3Cl)c2c1` [Compound 934] was more than 6.00. The value for `CNc1nc(-c2cccnc2)nc2ccc(-c3ccc(OC)cc3)c(C)c12` [Compound 1458] was less than 5.00; that for `CNc1nc(-c2cccnc2)nc2c(C)cc(-c3cccc(F)c3)cc12` [Compound 1280] was 5.00 to 6.00; that for `NC(=O)c1cccc(-c2ccc3c(Nc4ccc(F)c(Cl)c4)nc(-c4cccnc4)nc3c2)c1` [Compound 691] was more than 6.00. Take `O=c1ccc2ccc(Nc3nc(-c4cccnc4)nc4ccc(-c5cccnc5)cc34)cc2[nH]1` [Compound 352]: the negative-log IC50 (pIC50) was 5.00 to 6.00. The value for `CNc1nc(-c2cccnc2)nc2cc(-c3ccccc3F)c(C)cc12` [Compound 1403] was less than 5.00.

With `COc1cncc(-c2ccc3nc(-c4cccnc4)nc(Nc4ccc(F)c(Cl)c4)c3c2)c1` [Compound 660], the negative logarithm of the IC50 (pIC50) is more than 6.00. Turning to `CCNC(=O)c1sc(Nc2nc(-c3cccnc3)nc3ccc(OC)cc23)nc1-c1ccccc1` [Compound 1126], the pIC50 is 5.00 to 6.00. For `NC(=O)c1ccccc1Nc1nc(-c2cccnc2)nc2cc(-c3ccc(F)c(F)c3)ccc12` [Compound 703], the pIC50 is more than 6.00.

Take `CNc1nc(-c2cccnc2)nc2cc(-c3ccc(C(C)=O)cc3)ccc12` [Compound 1351]: the pIC50 was 5.00 to 6.00. The value for `COc1ccc2nc(-c3cccnc3)nc(Nc3nc(-c4cccc(OC(F)(F)F)c4)cs3)c2c1` [Compound 455] was 5.00 to 6.00. As for `Clc1cc(Cl)cc(Nc2nc(-c3ccnnc3)nc3cc(Cl)ccc23)c1` [Compound 1205], the figure is 5.00 to 6.00; as for `CN(C)c1ccc(-c2ccc3nc(-c4cccnc4)nc(Nc4ccc(F)c(Cl)c4)c3c2)cc1` [Compound 668], more than 6.00. Turning to `COc1ccc2nc(-c3cccnc3)nc(Nc3ccccc3C(=O)NCc3occc3C)c2c1` [Compound 901], the pIC50 was 5.00 to 6.00. As for `Cc1cccc2c(Nc3ccc(Cl)c(Cl)c3)nc(-c3cnccn3)nc12` [Compound 1178], the figure is 5.00 to 6.00; as for `Fc1cc(F)cc(-c2ccc3c(Nc4ccc(F)c(Cl)c4)nc(-c4cccnc4)nc3c2)c1` [Compound 675], more than 6.00; as for `N#Cc1cccc(Nc2nc(-c3cnccn3)nc3ccc(Cl)cc23)c1` [Compound 1158], 5.00 to 6.00. As for `COc1ccc2nc(-c3cccnc3)nc(Nc3ccccc3Br)c2c1` [Compound 437], the figure is 5.00 to 6.00; as for `FC(F)Oc1cc(Cl)cc(Nc2nc(-c3ccnnc3)nc3ccccc23)c1` [Compound 1212], 5.00 to 6.00. As for `COc1ccc2nc(-c3cccnc3)nc(Nc3ccc4sc(=O)[nH]c4c3)c2c1` [Compound 326], the figure is 5.00 to 6.00; as for `COc1ccc2nc(-c3cccnc3)nc(Nc3nc(-c4cccc(C)c4)cs3)c2c1` [Compound 440], 5.00 to 6.00. Take `Cc1cc(Cl)cc2c(Nc3cc(Cl)cc(Cl)c3)nc(-c3cnccn3)nc12` [Compound 1229]: the pIC50 was 5.00 to 6.00.

On to `NC(=O)c1ccccc1Nc1nc(-c2cccnc2)nc2cc(-c3cccc(F)c3F)ccc12` [Compound 705], for which the negative-log IC50 (pIC50) is more than 6.00. Regarding `Clc1cc(Cl)cc(Nc2nc(-c3cnccn3)nc3cc(Cl)ccc23)c1` [Compound 1146], the negative logarithm of the IC50 (pIC50) is 5.00 to 6.00.

For `COc1ccc2nc(-c3cccnc3)nc(Nc3ccccc3C(=O)NC(C)c3ccc(C(F)(F)F)cc3)c2c1` (stereo not drawn) [Compound 889], the pIC50 is 5.00 to 6.00. Turning to `Cc1cc(Cl)cc2c(Nc3ccccc3C(N)=O)nc(-c3cnccn3)nc12` [Compound 1226], the negative-log IC50 (pIC50) is 5.00 to 6.00. The value for `Clc1ccc2c(Nc3ccc(Cl)c(Cl)c3)nc(-c3ccnnc3)nc2c1` [Compound 1204] was less than 5.00; that for `COc1cccc(-c2ccc3nc(-c4cccnc4)nc(Oc4ccccc4C(N)=O)c3c2)c1` [Compound 393] was 5.00 to 6.00. The value for `CNc1nc(-c2cccnc2)nc2ccc(-c3cccnc3OC)cc12` [Compound 1330] was less than 5.00; that for `CN(C)c1ccc2nc(-c3ccnnc3)nc(Nc3ccccc3C(N)=O)c2c1` [Compound 1151] was 5.00 to 6.00. On to `CCOc1cccc(-c2ccc3nc(-c4cccnc4)nc(Nc4ccc(F)c(Cl)c4)c3c2)c1` [Compound 657], for which the pIC50 is more than 6.00.

With `COc1ncc(-c2ccc3nc(-c4cccnc4)nc(Nc4ccc(F)c(Cl)c4)c3c2)c(OC)n1` [Compound 653], the pIC50 was more than 6.00. As for `CNc1nc(-c2cccnc2)nc2ccc(-c3ccc(F)cc3F)c(C)c12` [Compound 1286], the figure is 5.00 to 6.00. The value for `CNc1nc(-c2cccnc2)nc2cc(C)c(-c3cccc(OC)c3)cc12` [Compound 1419] was 5.00 to 6.00.

With `COc1ccc2nc(-c3cccnc3)nc(Oc3ccccc3)c2c1` [Compound 348], the pIC50 is 5.00 to 6.00. The value for `CNc1nc(-c2cncnc2)nc2ccc(-c3cccc(F)c3F)cc12` [Compound 1239] was 5.00 to 6.00; that for `N#Cc1ccc(-c2ccc3c(Nc4ccc(F)c(Cl)c4)nc(-c4cccnc4)nc3c2)cc1` [Compound 690] was 5.00 to 6.00. The value for `COc1ccc2nc(-c3cccnc3)nc(Nc3ccc(C)c(C)c3)c2c1` [Compound 923] was 5.00 to 6.00; that for `COc1ccc2c(Nc3ccc(F)c(Cl)c3)nc(-c3cnccn3)nc2c1` [Compound 1148] was 5.00 to 6.00; that for `c1cncc(-c2ccc3nc(-c4cccnc4)nc(Nc4ccc5ccsc5c4)c3c2)c1` [Compound 313] was more than 6.00. As for `NC(=O)c1ccccc1Nc1nc(-c2cccnc2)nc2cc(-c3cccc(F)c3)ccc12` [Compound 700], the figure is more than 6.00; as for `CNc1nc(-c2cccnc2)nc2cc(-c3cc(F)ccc3F)ccc12` [Compound 1601], 5.00 to 6.00. As to `CNc1nc(-c2cccnc2)nc2cc(-c3cccc(F)c3F)ccc12` [Compound 1371], the negative logarithm of the IC50 (pIC50) was 5.00 to 6.00. The value for `COc1ccc2nc(-c3cccnc3)nc(Nc3ccc4ncsc4c3)c2c1` [Compound 296] was 5.00 to 6.00. The value for `CN(C)c1cccc(-c2ccc3nc(-c4cccnc4)nc(Nc4ccc(F)c(Cl)c4)c3c2)c1` [Compound 643] was more than 6.00; that for `Fc1ccc(Nc2nc(-c3cccnc3)nc3cc(-c4ccccc4F)ccc23)cc1Cl` [Compound 687] was more than 6.00. As for `COc1ccc2nc(-c3cccnc3)nc(Nc3nc(-c4cccc(C#N)c4)cs3)c2c1` [Compound 453], the negative logarithm of the IC50 (pIC50) was more than 6.00. For `COc1ccc(-c2csc(Nc3nc(-c4cccnc4)nc4ccc(OC)cc34)n2)cc1` [Compound 435], the pIC50 is more than 6.00. As for `NC(=O)c1ccccc1Nc1nc(-c2cccnc2)nc2cc(-c3ccccc3F)ccc12` [Compound 702], the figure is more than 6.00.

(Values after patent publication US9630947B2, “Therapeutic compounds and related methods of use” (OTSUKA PHARMACEUTICAL CO., LTD., priority 2009, dated 2017).)
